In patent US20220088016A1, “CANCER TREATMENT USING MULTI-TARGETED KINASE INHIBITOR IN COMBINATION OF PROTEIN KINASE BIOMARKERS” (ZHEJIANG CROWNMAB BIOTECH CO. LTD., priority 2019, published 2022):

Experiments:
LOK = LOK (Homo sapiens, UniProt O94804); experiment: Kinase profiling; assay type: binding; details: read-out: % Ctrl @ 1000 nM
EIF2AK1 = EIF2AK1 (Homo sapiens, UniProt Q9BQI3); experiment: Kinase profiling; assay type: binding; details: read-out: % Ctrl @ 1000 nM
IRAK1 = IRAK1 (Homo sapiens, UniProt P51617); experiment: Kinase profiling; assay type: binding; details: read-out: % Ctrl @ 1000 nM
MEK3 = molecular target: T1, MEK3 (Homo sapiens, UniProt P46734); experiment: Kinase profiling; assay type: binding; details: read-out: % Ctrl @ 1000 nM
T1 construct: T7 phage fusion (stated for most kinases of the panel only); made in house; host or cells: T7 phage in E. coli (BL21-derived) or HEK-293 cells

DYRK1B = DYRK1B (Homo sapiens, UniProt Q9Y463); experiment: Kinase profiling; assay type: binding; details: read-out: % Ctrl @ 1000 nM
FGR = FGR (Homo sapiens, UniProt P09769); experiment: Kinase profiling; assay type: binding; details: read-out: % Ctrl @ 1000 nM
LIMK1 = LIMK1 (Homo sapiens, UniProt P53667); experiment: Kinase profiling; assay type: binding; details: read-out: % Ctrl @ 1000 nM
PIK3CB = PIK3CB (Homo sapiens, UniProt P42338); experiment: Kinase profiling; assay type: binding; details: read-out: % Ctrl @ 1000 nM
NEK9 = molecular target: T2, NEK9 (Homo sapiens, UniProt Q8TD19); experiment: Kinase profiling; assay type: binding; details: read-out: % Ctrl @ 1000 nM
T2 construct: T7 phage fusion (said for most assays); made in house
T2 sequence (Q8TD19 whole entry, the tested form may be a part): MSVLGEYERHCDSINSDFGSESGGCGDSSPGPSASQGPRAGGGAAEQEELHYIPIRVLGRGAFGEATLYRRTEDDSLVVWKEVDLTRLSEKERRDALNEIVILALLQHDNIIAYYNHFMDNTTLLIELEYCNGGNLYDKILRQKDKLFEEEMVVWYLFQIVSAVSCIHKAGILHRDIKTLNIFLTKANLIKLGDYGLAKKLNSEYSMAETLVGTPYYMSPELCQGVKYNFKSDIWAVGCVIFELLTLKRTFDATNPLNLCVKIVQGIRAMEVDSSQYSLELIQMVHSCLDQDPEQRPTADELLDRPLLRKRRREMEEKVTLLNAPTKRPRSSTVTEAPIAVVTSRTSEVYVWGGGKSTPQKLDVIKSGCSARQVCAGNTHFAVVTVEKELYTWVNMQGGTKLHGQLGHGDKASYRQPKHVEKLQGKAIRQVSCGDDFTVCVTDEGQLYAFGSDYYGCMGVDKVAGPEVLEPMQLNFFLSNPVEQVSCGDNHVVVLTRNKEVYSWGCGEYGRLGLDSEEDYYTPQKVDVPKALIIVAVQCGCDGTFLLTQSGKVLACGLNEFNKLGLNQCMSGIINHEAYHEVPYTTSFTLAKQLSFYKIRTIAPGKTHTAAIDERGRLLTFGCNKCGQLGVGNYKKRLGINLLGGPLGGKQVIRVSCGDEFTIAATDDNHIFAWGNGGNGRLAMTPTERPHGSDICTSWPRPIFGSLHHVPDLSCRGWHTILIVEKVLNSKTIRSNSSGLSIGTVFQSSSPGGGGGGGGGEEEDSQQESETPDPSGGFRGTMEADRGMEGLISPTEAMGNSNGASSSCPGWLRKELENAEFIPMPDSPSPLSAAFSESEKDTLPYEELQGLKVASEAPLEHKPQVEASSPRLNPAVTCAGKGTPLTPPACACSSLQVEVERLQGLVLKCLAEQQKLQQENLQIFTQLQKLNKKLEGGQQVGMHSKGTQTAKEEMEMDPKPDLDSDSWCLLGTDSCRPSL

RAW264.7 cells = experiment: Proliferation of RAW264.7 cells (CTG assay); assay type: cell-based; details: RAW264.7 (CSF-1 independent, negative control), 3 days
Procedure: Two syngeneic cell lines M-NFS-60 and RAW264.7 and engineered BaF3 hCSFIR cell line were starved and then tested with CBT-102 and other test articles for 3 days in the temperature of 37° C., 5% CO2 and 95% humidity. The cell viability was then detected using CTG assay. The software of GraphPad Prism was used to calculate IC50.
CSF-1 dependent mouse myeloid M-NFS-60 cells were employed as target cells while a CSF-1 independent cell line Raw 264.7 was used as a negative control. In addition to CBT-102, the study also included 3 CSF-1R inhibitors: GW2580, BLZ945 and Pexidartinib.

CAMK2A = CAMK2A (Homo sapiens, UniProt Q9UQM7); experiment: Kinase profiling; assay type: binding; details: read-out: % Ctrl @ 1000 nM
PFTK1 = PFTK1 (Homo sapiens, UniProt O94921); experiment: Kinase profiling; assay type: binding; details: read-out: % Ctrl @ 1000 nM
PRKCQ = PRKCQ (Homo sapiens, UniProt Q04759); experiment: Kinase profiling; assay type: binding; details: read-out: % Ctrl @ 1000 nM
FAK = FAK (Homo sapiens, UniProt Q05397); experiment: Kinase profiling; assay type: binding; details: read-out: % Ctrl @ 1000 nM
LIMK2 = LIMK2 (Homo sapiens, UniProt P53671); experiment: Kinase profiling; assay type: binding; details: read-out: % Ctrl @ 1000 nM
ROCK2 = ROCK2 (Homo sapiens, UniProt O75116); experiment: Kinase profiling; assay type: binding; details: read-out: % Ctrl @ 1000 nM
CAMK2B = CAMK2B (Homo sapiens, UniProt Q13554); experiment: Kinase profiling; assay type: binding; details: read-out: % Ctrl @ 1000 nM
CAMK2B, sequence (Q13554 whole entry): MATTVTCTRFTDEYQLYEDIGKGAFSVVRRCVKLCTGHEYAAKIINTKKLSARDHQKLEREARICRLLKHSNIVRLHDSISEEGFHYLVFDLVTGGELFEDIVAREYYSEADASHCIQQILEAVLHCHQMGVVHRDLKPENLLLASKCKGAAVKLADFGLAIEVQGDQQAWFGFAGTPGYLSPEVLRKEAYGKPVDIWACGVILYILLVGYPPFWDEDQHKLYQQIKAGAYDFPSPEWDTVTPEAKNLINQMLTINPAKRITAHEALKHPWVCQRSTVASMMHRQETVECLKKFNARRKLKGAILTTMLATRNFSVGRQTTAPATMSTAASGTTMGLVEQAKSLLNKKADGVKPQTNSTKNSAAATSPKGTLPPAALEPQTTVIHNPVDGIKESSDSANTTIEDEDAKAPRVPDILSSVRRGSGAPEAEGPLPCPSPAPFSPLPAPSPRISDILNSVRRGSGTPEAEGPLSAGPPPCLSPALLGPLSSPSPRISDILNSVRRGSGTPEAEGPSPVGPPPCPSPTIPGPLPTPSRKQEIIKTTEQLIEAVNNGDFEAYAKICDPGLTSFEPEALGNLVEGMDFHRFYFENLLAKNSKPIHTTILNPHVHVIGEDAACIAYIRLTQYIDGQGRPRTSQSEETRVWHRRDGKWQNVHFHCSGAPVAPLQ

PIK3CA (M1043I) = PIK3CA (M1043I) (Homo sapiens, UniProt P42336, M1043I); experiment: Kinase profiling; assay type: binding; details: read-out: % Ctrl @ 1000 nM
CDK2 = CDK2 (Homo sapiens, UniProt P24941); experiment: Kinase profiling; assay type: binding; details: read-out: % Ctrl @ 1000 nM
PAK3 = PAK3 (Homo sapiens, UniProt O75914); experiment: Kinase profiling; assay type: binding; details: read-out: % Ctrl @ 1000 nM
EGFR = EGFR (Homo sapiens, UniProt P00533); experiment: Kinase profiling; assay type: binding; details: read-out: % Ctrl @ 1000 nM
SBK1 = SBK1 (Homo sapiens, UniProt Q52WX2); experiment: Kinase profiling; assay type: binding; details: read-out: % Ctrl @ 1000 nM
ERBB2 = ERBB2 (Homo sapiens, UniProt P04626); experiment: Kinase profiling; assay type: binding; details: read-out: % Ctrl @ 1000 nM
CDK3 = CDK3 (Homo sapiens, UniProt Q00526); experiment: Kinase profiling; assay type: binding; details: read-out: % Ctrl @ 1000 nM
CDK3, sequence (Q00526 whole entry): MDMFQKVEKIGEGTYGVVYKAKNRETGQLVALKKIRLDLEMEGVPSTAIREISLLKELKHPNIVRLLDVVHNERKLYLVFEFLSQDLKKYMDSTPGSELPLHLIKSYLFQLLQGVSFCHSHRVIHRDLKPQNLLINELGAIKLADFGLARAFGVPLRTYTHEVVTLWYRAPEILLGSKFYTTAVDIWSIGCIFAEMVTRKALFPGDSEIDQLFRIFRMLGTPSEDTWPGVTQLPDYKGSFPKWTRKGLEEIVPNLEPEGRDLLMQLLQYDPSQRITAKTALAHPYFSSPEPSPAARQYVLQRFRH

MINK = molecular target: T3, MINK (Homo sapiens, UniProt Q8N4C8); experiment: Kinase profiling; assay type: binding; details: read-out: % Ctrl @ 1000 nM
T3 construct: T7 phage fusion (stated for most kinases of the panel only); made in house; host or cells: T7 phage in E. coli (BL21-derived) or HEK-293 cells

TAOK2 = TAOK2 (Homo sapiens, UniProt Q9UL54); experiment: Kinase profiling; assay type: binding; details: read-out: % Ctrl @ 1000 nM
TAOK2, sequence (Q9UL54 whole entry): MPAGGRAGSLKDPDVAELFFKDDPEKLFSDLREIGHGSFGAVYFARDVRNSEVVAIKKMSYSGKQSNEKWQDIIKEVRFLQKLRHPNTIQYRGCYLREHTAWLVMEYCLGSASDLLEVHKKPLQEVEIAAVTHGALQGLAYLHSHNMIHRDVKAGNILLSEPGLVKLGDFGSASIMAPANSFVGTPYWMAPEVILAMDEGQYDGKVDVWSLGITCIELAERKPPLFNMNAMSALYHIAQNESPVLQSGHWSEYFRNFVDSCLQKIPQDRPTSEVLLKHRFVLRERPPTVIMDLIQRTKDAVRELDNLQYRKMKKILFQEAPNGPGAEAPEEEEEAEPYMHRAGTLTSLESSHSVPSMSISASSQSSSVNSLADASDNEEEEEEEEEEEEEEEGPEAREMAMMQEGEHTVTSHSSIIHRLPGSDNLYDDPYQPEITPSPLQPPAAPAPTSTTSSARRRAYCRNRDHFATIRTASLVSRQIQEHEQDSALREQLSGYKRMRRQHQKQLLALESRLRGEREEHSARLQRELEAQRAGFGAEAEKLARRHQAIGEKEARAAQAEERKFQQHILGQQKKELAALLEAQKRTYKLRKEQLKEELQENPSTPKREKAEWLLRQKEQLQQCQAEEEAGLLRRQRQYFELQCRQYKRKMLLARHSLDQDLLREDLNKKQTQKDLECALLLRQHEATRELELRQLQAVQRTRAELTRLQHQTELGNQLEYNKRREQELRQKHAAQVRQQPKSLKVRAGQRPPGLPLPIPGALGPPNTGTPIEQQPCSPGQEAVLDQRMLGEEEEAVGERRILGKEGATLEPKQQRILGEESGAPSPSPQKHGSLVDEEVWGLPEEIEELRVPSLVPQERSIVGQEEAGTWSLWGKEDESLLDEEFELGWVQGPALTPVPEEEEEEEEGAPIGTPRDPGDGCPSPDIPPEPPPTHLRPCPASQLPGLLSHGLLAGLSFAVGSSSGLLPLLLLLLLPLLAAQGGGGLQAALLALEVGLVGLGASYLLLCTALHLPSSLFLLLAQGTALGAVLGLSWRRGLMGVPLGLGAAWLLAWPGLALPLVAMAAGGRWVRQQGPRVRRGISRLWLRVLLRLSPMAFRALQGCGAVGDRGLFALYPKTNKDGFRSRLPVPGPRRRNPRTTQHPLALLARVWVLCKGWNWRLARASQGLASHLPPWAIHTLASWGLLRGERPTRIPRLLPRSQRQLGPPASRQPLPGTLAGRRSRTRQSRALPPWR

[1] = molecular target: RSK3 (Kin.Dom.1-N-terminal) (Homo sapiens, UniProt Q15349); experiment: Kinase profiling; assay type: binding; details: read-out: % Ctrl @ 1000 nM
FLT3 (D835V) = FLT3 (D835V) (Homo sapiens, UniProt P36888, D835V); experiment: Kinase profiling; assay type: binding; details: read-out: % Ctrl @ 1000 nM
ALK (L1196M) = ALK (L1196M) (Homo sapiens, UniProt Q9UM73, L1196M); experiment: Kinase profiling; assay type: binding; details: read-out: % Ctrl @ 1000 nM
MYLK = molecular target: T4, MYLK (Homo sapiens, UniProt Q15746); experiment: Kinase profiling; assay type: binding; details: read-out: % Ctrl @ 1000 nM
T4 construct: T7 phage fusion (said for most assays); made in house
T4 sequence (Q15746 whole entry, the tested form may be a part): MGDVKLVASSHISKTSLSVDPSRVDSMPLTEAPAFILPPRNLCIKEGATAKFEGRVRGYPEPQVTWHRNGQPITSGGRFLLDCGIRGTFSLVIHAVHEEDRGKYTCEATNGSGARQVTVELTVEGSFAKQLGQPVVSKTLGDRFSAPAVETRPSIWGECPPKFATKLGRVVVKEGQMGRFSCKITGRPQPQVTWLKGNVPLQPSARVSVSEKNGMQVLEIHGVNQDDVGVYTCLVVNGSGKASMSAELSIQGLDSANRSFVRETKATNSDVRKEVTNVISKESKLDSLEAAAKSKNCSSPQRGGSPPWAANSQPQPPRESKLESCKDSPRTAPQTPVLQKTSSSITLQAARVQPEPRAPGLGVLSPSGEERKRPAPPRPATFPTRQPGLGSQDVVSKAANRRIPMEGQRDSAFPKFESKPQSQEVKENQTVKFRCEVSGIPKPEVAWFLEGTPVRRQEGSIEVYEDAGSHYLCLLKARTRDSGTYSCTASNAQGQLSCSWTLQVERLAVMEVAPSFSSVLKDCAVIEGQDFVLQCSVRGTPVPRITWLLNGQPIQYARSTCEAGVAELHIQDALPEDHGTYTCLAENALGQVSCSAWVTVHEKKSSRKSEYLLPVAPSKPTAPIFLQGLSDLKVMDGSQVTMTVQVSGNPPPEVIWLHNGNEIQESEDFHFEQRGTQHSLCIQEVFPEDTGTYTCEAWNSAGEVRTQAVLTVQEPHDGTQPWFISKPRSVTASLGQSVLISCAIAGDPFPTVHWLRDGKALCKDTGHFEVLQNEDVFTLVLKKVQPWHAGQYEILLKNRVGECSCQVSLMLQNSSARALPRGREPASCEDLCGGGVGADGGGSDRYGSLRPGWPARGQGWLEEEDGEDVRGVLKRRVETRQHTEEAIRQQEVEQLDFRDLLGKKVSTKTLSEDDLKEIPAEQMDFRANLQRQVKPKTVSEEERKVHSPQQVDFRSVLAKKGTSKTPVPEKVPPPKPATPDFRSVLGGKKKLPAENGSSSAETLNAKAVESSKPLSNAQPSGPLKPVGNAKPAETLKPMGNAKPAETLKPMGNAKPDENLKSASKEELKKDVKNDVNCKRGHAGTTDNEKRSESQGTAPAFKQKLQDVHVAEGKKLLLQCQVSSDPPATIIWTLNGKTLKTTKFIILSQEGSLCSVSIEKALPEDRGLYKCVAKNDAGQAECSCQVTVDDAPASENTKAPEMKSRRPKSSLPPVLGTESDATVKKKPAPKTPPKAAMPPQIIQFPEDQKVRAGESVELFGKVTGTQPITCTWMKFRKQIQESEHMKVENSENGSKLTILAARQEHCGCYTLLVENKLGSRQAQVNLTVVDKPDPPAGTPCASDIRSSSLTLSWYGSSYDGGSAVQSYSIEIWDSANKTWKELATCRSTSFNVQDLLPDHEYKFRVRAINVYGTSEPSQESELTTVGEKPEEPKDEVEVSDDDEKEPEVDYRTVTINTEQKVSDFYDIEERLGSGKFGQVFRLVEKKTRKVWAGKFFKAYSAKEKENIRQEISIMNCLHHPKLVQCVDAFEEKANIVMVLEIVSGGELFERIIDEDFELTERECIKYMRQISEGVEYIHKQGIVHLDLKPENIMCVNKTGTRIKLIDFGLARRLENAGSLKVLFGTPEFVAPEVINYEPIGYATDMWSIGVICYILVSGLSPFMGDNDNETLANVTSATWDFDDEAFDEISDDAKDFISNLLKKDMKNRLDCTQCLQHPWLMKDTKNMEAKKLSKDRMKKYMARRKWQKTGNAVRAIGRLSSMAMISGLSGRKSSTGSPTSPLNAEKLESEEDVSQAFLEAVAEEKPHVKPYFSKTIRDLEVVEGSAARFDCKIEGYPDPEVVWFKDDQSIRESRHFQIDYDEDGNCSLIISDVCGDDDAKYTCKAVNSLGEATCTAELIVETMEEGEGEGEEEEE

MUSK = molecular target: T5, MUSK (Homo sapiens, UniProt O15146); experiment: Kinase profiling; assay type: binding; details: read-out: % Ctrl @ 1000 nM
T5 construct: T7 phage fusion (said for most assays); made in house

NDR1 = molecular target: T6, NDR1 (Homo sapiens, UniProt Q15208); experiment: Kinase profiling; assay type: binding; details: read-out: % Ctrl @ 1000 nM
T6 construct: T7 phage fusion (said for most assays); made in house

MAP4K5 = MAP4K5 (Homo sapiens, UniProt Q9Y4K4); experiment: Kinase profiling; assay type: binding; details: read-out: % Ctrl @ 1000 nM
[2] = molecular target: JAK3 (JH1domain-catalytic) (Homo sapiens, UniProt P52333); experiment: Kinase profiling; assay type: binding; details: read-out: % Ctrl @ 1000 nM

Work on Cc1cc(Oc2cc(NC(=O)C3CC3)ncn2)ccc1NC(=O)Nc1ccc(Cl)c(C(F)(F)F)c1 [CBT-102] yielded a remaining activity at 1 µM (LOK) of 0.1%, a remaining activity at 1 µM (EIF2AK1) of 99% and a remaining activity at 1 µM (IRAK1) of 75%. The remaining activity at 1 µM (MEK3) was 90%, the remaining activity at 1 µM (DYRK1B) was 100% and the remaining activity at 1 µM (FGR) was 41%. For the same molecule, the remaining activity at 1 µM (LIMK1) was 74%, the remaining activity at 1 µM (PIK3CB) was 100% and the remaining activity at 1 µM (NEK9) was 96%. It also gave an IC50 (RAW264.7 cells; Mus musculus, 72 h) of 22.9 µM, a Max inh. (RAW264.7 cells) of 95.44% and a remaining activity at 1 µM (CAMK2A) of 88%. It also gave a remaining activity at 1 µM (PFTK1) of 34%, a remaining activity at 1 µM (PRKCQ) of 95% and a remaining activity at 1 µM (FAK) of 86%. For the same molecule, the remaining activity at 1 µM (LIMK2) was 92%, the remaining activity at 1 µM (ROCK2) was 100% and the remaining activity at 1 µM (CAMK2B) was 97%. It also gave a remaining activity at 1 µM (PIK3CA (M1043I)) of 100%, a remaining activity at 1 µM (CDK2) of 69% and a remaining activity at 1 µM (PAK3) of 100%. The remaining activity at 1 µM (EGFR) was 76%, the remaining activity at 1 µM (SBK1) was 92% and the remaining activity at 1 µM (ERBB2) was 93%. It also gave a remaining activity at 1 µM (CDK3) of 90%, a remaining activity at 1 µM (MINK) of 35% and a remaining activity at 1 µM (TAOK2) of 23%. It also gave a remaining activity at 1 µM [1] of 98%, a remaining activity at 1 µM (FLT3 (D835V)) of 95% and a remaining activity at 1 µM (ALK (L1196M)) of 94%. For the same molecule, the remaining activity at 1 µM (MYLK) was 98%, the remaining activity at 1 µM (MUSK) was 47% and the remaining activity at 1 µM (NDR1) was 94%. For the same molecule, the remaining activity at 1 µM (MAP4K5) was 2.2% and the remaining activity at 1 µM [2] was 82%.
